# Assay results taken from patent US12226610B2, “Treatment of pain associated with total knee arthroplasty with sustained-release liposomal anesthetic compositions” (Pacira Pharmaceuticals, Inc., priority 2022, dated 2025).
# Where a name gives a salt, the structure may show the parent alone.
# What was measured:
# [1] = tested on: subjects undergoing primary unilateral TKA; assay: Safety assessments (TEAEs, SAEs, vital signs, EKG); parameters: species or system human; settings: in vivo
# From the text: Safety assessments included monitoring of AEs (including SAEs and adverse events of special interest [AESIs]), vital signs (temperature, resting heart rate, respiratory rate, oxygen saturation, and blood pressure), 12 lead EKG, and recording of concomitant medications.
# Safety endpoints included incidence of treatment emergent adverse events and SAEs from start of the nerve block procedure through POD14; change from baseline in vital signs over time; and abnormal post-baseline EKG findings.
# Adverse events and SAEs were recorded from the time of informed consent through POD14. Adverse events were coded using the Medical Dictionary for Regulatory Activities version 24.1 and summary tables were based on the Safety Analysis Set. A subject data listing was provided for all AEs, which included the reported term, preferred term, system organ class, treatment-emergent adverse event flag, study day of AE onset, AE start/stop date and time, relationship to study drug, frequency, severity, action taken with subject, outcome, and seriousness criteria.
# Vital signs and their change from baseline were summarized with mean, median, and standard deviation at baseline and at each scheduled time point. The frequency and percentage of EKG findings (normal, abnormal/not clinically significant, and abnormal/clinically significant) were summarized at screening and each scheduled time point.
# An AE can be defined as any untoward medical occurrence associated with the use of a drug in humans, whether or not considered drug related. An AE (also referred to as an adverse experience) could be any unfavorable and unintended sign (e.g., abnormal laboratory finding), symptom, or disease temporally associated with the use of a drug, without any judgment about causality. An AE could arise from any use of the drug (e.g., off-label use in combination with another drug) and from any route of administration, formulation, or dose, including an overdose.
# An AE that occurred after administration of the study treatment was considered a treatment-emergent adverse event (TEAE). A continuous AE with varying grades of severity was to be recorded as 1 AE. The highest grade of severity experienced by that subject during the course of the continuous AE was to be recorded.
# Assessment of the relationship of the AE to study drug after careful medical consideration on a case-by-case basis. […]
# [2] = tested on: subjects undergoing primary unilateral TKA; assay: Total postsurgical opioid consumption (OMED) and opioid-free status; format: in vivo, human; settings: any time interval up to 96 hours post-surgery
# Method: (§1) This was a Phase 3, multicenter, randomized, double blind, active controlled study of 167 subjects undergoing primary unilateral TKA under spinal anesthesia. The study consisted of 2 cohorts that were enrolled in parallel. Cohort 1 enrolled 46 subjects to obtain information on the PK profile, pharmacodynamics (PD), efficacy, and safety. Cohort 2 enrolled 121 subjects to obtain information on efficacy and safety. An adaptive study design was used in this study, with an interim analysis conducted by an unblinded independent review committee to evaluate sample size assumptions and futility. […]
# (§2) An unscheduled pain intensity assessment using the NRS (measured as “On a scale from 0 to 10, where 0 equals no pain and 10 equals the worst possible pain, how much pain are you experiencing in your operative knee right now?”) was to be completed immediately prior to administration of any breakthrough pain medication up to 96 hours post-surgery. Medications were administered as needed; opioids were not to be given on a pre-determined schedule. […]
# (§3) Total postsurgical opioid consumption in OMED from 0 to 96 hours was analyzed using an ANCOVA model. Time to first postsurgical opioid medication was analyzed using the Kaplan Meier survival method. […]
# [3] = tested on: subjects undergoing primary unilateral TKA; assay: Time to first opioid consumption (rescue medication) post-surgery; format: in vivo, human
# Method: as §1, §2, §3
# [4] = Plasma bupivacaine pharmacokinetics (Cohort 1); format: in vivo, human
# Method: (§4) This was a Phase 3, multicenter, randomized, double blind, active controlled study of 167 subjects undergoing primary unilateral TKA under spinal anesthesia. The study consisted of 2 cohorts that were enrolled in parallel. Cohort 1 enrolled 46 subjects to obtain information on the PK profile, pharmacodynamics (PD), efficacy, and safety. Cohort 2 enrolled 121 subjects to obtain information on efficacy and safety. An adaptive study design was used in this study, with an interim analysis conducted by an unblinded independent review committee to evaluate sample size assumptions and futility.
# (§5) On the day of surgery, prior to surgery, subjects in Cohort 1 and Cohort 2 were randomized (1:1) to receive an adductor canal block with a single dose of either 10 mL EXPAREL (133 mg) admixed with 10 mL 0.5% bupivacaine HCl (50 mg; from hereon referred to as the EXP133-ADMIX arm) or 10 mL 0.5% bupivacaine HCl (50 mg) mixed with 10 mL normal saline (from hereon referred to as the BUP50 arm). The total dose volume was consistent (20 mL) for all subjects.
# (§6) Efficacy assessments included pain intensity scores focused on the operative knee using the Numeric Rating Scale (NRS), total postsurgical opioid consumption in OMED, time to first opioid consumption post-surgery, and subject satisfaction using the International Pain Outcome (IPO). Additionally, blood samples for PK analysis (area under the curve [AUC], maximum plasma concentration [Cmax], time of maximum plasma concentration [Tmax], including early and late Cmax and Tmax (EXP133-ADMIX arm only), apparent terminal elimination half-life [t½e1], apparent clearance [CL/F], and apparent volume of distribution [Vd/F]) and PD assessment data (sensory and motor block) were collected from Cohort 1 subjects.
# Pharmacokinetic endpoints included area under the plasma concentration-versus-time curve, specifically from the time of dosing to the time of the last quantifiable concentration (AUC0-last) and AUC from the time of dosing to infinity (AUC0-∞); maximum plasma concentration (Cmax) and time of maximum plasma concentration (Tmax) for subjects treated with bupivacaine HCl; early and late Cmax and Tmax were determined for subjects treated with EXPAREL admixed with bupivacaine HCl (EXP133-ADMIX arm); t½e1; CL/F; Vd/F.
# [5] = tested on: sensory block and motor block; assay: Pharmacodynamic assessment of sensory and motor block (Cohort 1); format: in vivo, human
# Method: as §4, §5, §6
# Pharmacodynamic endpoints included: duration of the sensory block and motor block; time to onset of sensory block and motor block; and time to offset of sensory block and motor block.
smiles,measurement,setting,value
"CCCCN1CCCCC1C(=O)Nc1c(C)cccc1C (stereo not drawn) [BUP50, bupivacaine HCl]",subjects with clinically significant abnormal EKG findings,[1]; human,1 subjects
same,subjects with ≥1 TEAE,[1]; human,88.8%
same,subjects with ≥1 TEAE related to study drug,[1]; human,2 subjects
same,subjects discontinued from the study following SAEs,[1],One
same,subjects opioid free,[2],No subjects
same,median time to first rescue medication,[3],3.63 h
same,AUC(0-inf),"[4]; human, in vivo",7450 ng·h/mL
same,AUC(0-t),"[4]; human, in vivo",7280 ng·h/mL
same,concentration at 60 h,"[4]; human, in vivo",43.2 ng/mL
same,median time of Cmax,"[4]; human, in vivo",0.65 h
same,shape of mean bupivacaine concentration over time,[4]; in vivo,a single peak
same,Cmax,[4]; plasma bupivacaine,333.89 ng/mL
same,subjects in whom knee extension was not present,[5]; 8 hours post dose (first time point with majority),71.4%
same,median duration of sensory block,[5]; in vivo,11.63 h
same,time by which all subjects regained normal sensory function,[5]; post-dose,≤ 24 h
